Assay results from patent publication US10426751B2, “Allosteric activators for treatment of phenylketonuria” (MCMASTER UNIVERSITY, priority 2015, dated 2019).

Assays:
WT-PAH = target: T1, WT-PAH (Homo sapiens, UniProt P00439); assay: Primary screen (READ): ligand-induced stabilization of PAH activity in 8 M urea, Tyr formation by CE-UV; assay type: biochemical; details: 8 M urea, ligand 20 μM; ligand-free enzyme (7±0.5) %
T1 construct: made in house; the paragraph itself says 'eukaryotic cell cultures' (pMAL vector, Martinez laboratory, University of Bergen)
T1 sequence (P00439 1-452): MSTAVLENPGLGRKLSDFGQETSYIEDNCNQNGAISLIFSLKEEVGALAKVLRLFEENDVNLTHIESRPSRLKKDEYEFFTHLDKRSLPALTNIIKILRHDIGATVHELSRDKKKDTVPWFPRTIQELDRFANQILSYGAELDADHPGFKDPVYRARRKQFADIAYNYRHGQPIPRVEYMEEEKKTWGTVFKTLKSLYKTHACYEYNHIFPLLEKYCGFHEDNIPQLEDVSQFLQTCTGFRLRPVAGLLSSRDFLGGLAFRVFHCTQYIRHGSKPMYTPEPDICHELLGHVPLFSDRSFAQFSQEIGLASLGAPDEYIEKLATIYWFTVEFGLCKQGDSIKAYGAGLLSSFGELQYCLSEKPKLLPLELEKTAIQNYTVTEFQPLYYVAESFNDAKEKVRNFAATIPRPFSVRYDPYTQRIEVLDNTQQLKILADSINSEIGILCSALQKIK
Procedure: Tetrameric human phenylalanine hydroxylase (PAH) enzyme kinetic assays were performed off-line under standardized conditions prior to quantification of Tyr formation by CE with UV detection. Enzyme assays were performed by first mixing together Phe (1 mM), catalase (100 nM) and PAH (0.25 μM/subunit) in a reaction buffer (20 mM HEPES and 200 mM NaCl, pH 7.0) that were equilibrated at 25° C. for 4 min. Then, ferrous (Fe^2+) ammonium sulfate (100 μM) was added to the solution for 1 min and the reaction was subsequently initiated by addition of BH4 ([…]) with DTT (5 mM) using a total volume of 100 μL. The reaction mixture was then vortexed for 60 s followed by sonication for 2 min prior to centrifugation for 10 s at 4 g and storage in a refrigerator (+4° C.). An aliquot (20 μL) was withdrawn from the quenched enzyme reaction and placed in a micro vial containing Me-Tyr as IS (100 μM) prior to CE analysis. The stability of the quenched enzyme reaction was confirmed by intermittent analysis of PAH activity over 6 h at room temperature, and no significant changes in the Tyr/IS or Phe/Tyr response ratio were measured. Enzymatic reactions were performed for both WT-PAH and two PAH mutants by pre-equilibrating each ligand for 10 min prior to addition of ferrous ion and BH4/DDT as described in enzyme reaction protocol in order to assess for ligand-induced PAH inhibition or activation.
Unlike thermal stability assays that can induce protein aggregation, chemical denaturants are more suitable as perturbants to promote unfolding and enzyme inactivation while solubilizing multimeric proteins. In this context, restoration of enzyme activity upon denaturation (READ) was first introduced to characterize PCs that stabilize yet enhance the activity of a lysosomal enzyme, β-glucocerebrosidase (GCase). Herein, READ was modified, further optimized and validated for primary screening of PCs for the cytosolic enzyme (PAH) using a chemical library containing structurally unique compounds with drug-like activity. For instance, the primary screen was used to measure ligand-induced stabilization of PAH by extrinsic small molecules that impart greater resistance to urea unfolding as compared to ligand-free apo-enzyme conditions. PAH activity was first examined as a function of urea concentration (0 to 8 M) and pre-equilibration time (10 min to 2 hr) in order to determine optimum conditions where residual enzyme activity was largely attenuated below 10% due to protein unfolding. Protein unfolding was performed in triplicate offline with the enzyme reaction buffer (20 mM HEPES and 200 mM NaCl, pH 7.0) using tetrameric human PAH (1 μM and/or 0.1 μM) or mutant PAH (1 μM and/or 0.1 μM) incubated 10 min in 0 M or 8 M urea in the presence or absence of ligand (20 μM). Dose-response studies (0, 2.0 and 20 μM) were subsequently performed in triplicate on screen-positive compounds using re-synthesized ligands in order to further validate initial screen results. In all cases, quenched enzyme reactions were processed as described previously prior to CE analysis. PAH activity measurements based on Tyr formation at 8M urea with the presence or absence of PC were normalized to 0 M urea for each aliquot enzyme reaction to minimize long-term variation, which also enables direct comparison of the ligand-induced stabilization activity under denaturing conditions (8M urea) while confirming inhibition and activation effects for ligands under native conditions (0 M urea).

PAH [1] = target: T2, PAH (Homo sapiens, UniProt P00439); details: 100 μM; cited from earlier work
T2 sequence (P00439 1-452): T1 sequence (P00439 1-452)

PAH [2] = target: T3, PAH (Mus musculus, UniProt P16331); details: cited from earlier work
T3 construct: inducing a 2-fold enhancement in PAH activity in WT mouse liver; host or cells: liver of WT mice
T3 sequence (P16331 1-453): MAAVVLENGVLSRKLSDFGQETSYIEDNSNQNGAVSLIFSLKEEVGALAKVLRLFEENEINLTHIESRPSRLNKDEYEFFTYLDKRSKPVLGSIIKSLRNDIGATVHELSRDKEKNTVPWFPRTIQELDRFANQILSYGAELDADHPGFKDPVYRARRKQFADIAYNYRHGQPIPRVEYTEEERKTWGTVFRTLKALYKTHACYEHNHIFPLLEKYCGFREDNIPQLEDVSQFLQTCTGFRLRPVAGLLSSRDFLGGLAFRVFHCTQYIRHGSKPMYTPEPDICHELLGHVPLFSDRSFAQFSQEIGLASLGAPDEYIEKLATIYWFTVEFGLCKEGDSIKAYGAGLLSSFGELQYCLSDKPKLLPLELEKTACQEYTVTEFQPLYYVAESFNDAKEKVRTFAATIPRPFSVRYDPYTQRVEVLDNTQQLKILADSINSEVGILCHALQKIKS

PAH [3] = target: T2, PAH; details: read-out: Ki (weak competitive inhibitor to PAH); cited from earlier work

SMILES: Nc1c(-c2ccc3ccccc3n2)c2ccc([N+](=O)[O-])cc2c(=O)n1Cc1ccccc1 [compound III, 3-amino-2-benzyl-7-nitro-4-(2-quinolyl)-1,2-dihydroisoquinolin-1-one]
- PAH residual activity (% of WT-PAH) (WT-PAH): 19%
- shift of denaturation temperature relative to ligand-free enzyme (PAH [1]): greater than 14 °C
- enhancement in PAH activity in WT mouse liver (PAH [2]): 2 fold

SMILES: Cc1ccnc(-n2c(=S)[nH]c3sc(C)c(C)c3c2=O)c1 [compound IV, 5,6-dimethyl-3-(4-methyl-2-pyridinyl)-2-thioxo-2,3-dihydrothieno[2,3-d] pyrimidin-4(1H)-one]
- PAH residual activity (% of WT-PAH) (WT-PAH): 9%
- shift of denaturation temperature relative to ligand-free enzyme (PAH [1]): > 7 °C
- Ki (PAH [3]): 200 µM
- enhancement in PAH activity in WT mouse liver (PAH [2]): 2 fold
